This passage reports logP results from patent EP0894433B1, “A method of preparing a biocidal material” (EASTMAN KODAK COMPANY, priority 1997, dated 1999).

SMILES strings stand for the structures.

This data set is described as follows: Partition coefficient between octanol and water by UV/visible absorption. In kind it is physicochemical. To be noted: partition coefficient n-octanol/water, 25°C; read-out: P. Here is the method:
As used herein, it provides a measure of the hydrophobicity of the biocide.
A variety of commercial and hydrophobically-modified biocides have been studied. Partition coefficients between octanol and water have been determined at 25°C by UV/visible absorption. First, the calibration curve of each biocide was determined as optical density (ODabs) versus concentration of biocide in µg/g (ppm) of water for the predominantly water-soluble materials and µg/g of octanol for the predominantly oil-soluble biocides.
A known amount of biocide was placed in a glass vessel containing either 10ml of water or 10ml of octanol depending on the solubility of the biocide. An equal volume of the other solvent was added and the glass vessel sealed. The vessel was shaken vigorously for a few minutes and then every few hours for more than 48 hours. Each mixture was placed in a sealed separating funnel and left for a further 24 hours. The water phase of each mixture was removed and the UV/visible spectra run against water with appropriate dilutions to bring absorbance between 0 and 1.5 for the commercial biocides and the octanol fractions were examined for the hydrophobically modified biocides.
As for `CCCCCCCCCCCC[N+](C)(C)CCOc1ccccc1` [Domiphen™], the logP is roughly 1.7.
As for `CCCCCCCCn1sc2ccccc2c1=O` [Compound 1], the figure is greater than 2.52; as for `CCCCCCCCCCCCCCCCn1sc2ccccc2c1=O` [Compound 2], greater than 2.11; as for `CCCCCCCCCCCCCCCCCCn1sc(Cl)cc1=O` [Compound 4], greater than 2.68.
Turning to `CCCCCCCCn1sc(Cl)cc1=O` [Compound 3], the logP was greater than 2.75.
Regarding `Cn1sc2c(c1=O)CCC2` [Promexal™], the logP was roughly 0.653.
